Test results taken from patent US8729053B2, “Nuclear factor kappa B pathway inhibitor composition and use of same” (The United States of America, as represented by the …, priority 2008, dated 2014).
Where a name gives a salt, the structure may show the parent alone.

Legend:
Assay type in all cases: cell-based
AP-1 [1] = assay: AP-1 luciferase reporter assay in HEK293 cells
Experimental: All expression plasmids were transiently transfected into HEK293 cells in a 96-well plate (0.1 μg/well) by using Effectene transfection reagent (Qiagen, Valencia, Calif.) according to the manufacturer's manual. HEK293 cells were maintained in Dulbecco's modified Eagle medium (Sigma, St. Louis, Mo.) supplemented with 10% fetal bovine serum (Atlanta Biologicals, Lawrenceville, Ga.) and incubated at 37° C. in a 5% CO2 incubator. After 24 hrs incubation, the medium was changed to DMEM with 0.2% FBS, and the transfectants were exposed to various concentrations of compound I and TPA (10 ng/ml). Cells were lysed with passive lysis buffer and the luciferase assay was performed using the Firefly-Luciferase reporter assay system (Promega, Madison, Wis.) and MLX Luminometer (Dynex Technology, Chantilly, Va.).
Three different luciferase reporter genes, AP-1 reporter containing four times TRE consensus originated from GCN4 and SRE reporter purchased from Stratagene (La Jolla, Calif.) respectively are as described previously (Suzukawa et al., Environ. Health Perspect., 2002, 110, 865-70). NFκB reporter is driven by five times NFκB responsive element inserted into Cis-reporter backbone (Stratagene, La Jolla, Calif.). Others include mouse COX-2 promoter region from −203 to +70 relative to the transcription site inserted into pTIS10L vector (Kim and Fischer, J. Biol. Chem., 1998, 273, 27686-94), human uPAR promoter region from −141 to +47 relative to transcription start site in pGL3 vector (Wang et al., Eur. J. Biochem., 2000, 267, 3248-54), and human VEGF promoter sequence from −2274 to +379 inserted into the pGL2 vector (Ding et al., J. Biol. Chem., 2006, 281, 9093-100). […]

IκBα = assay: Phosphorylated IκBα levels in TPA treated breast cancer cell lines; settings: TPA treated MCF-7, T47D, MDA-MB-231
Experimental: (§1) In order to evaluate the potential therapeutic activity of the compound, tests for the biological activity of compound I were performed. The compound is non-toxic to MCF-7, T47D, and MDA-MB-231 breast cancer cells as estimated by XTT assay at 10 μM. To determine the effects of compound I on invasion by breast cancer cell lines, a matrigel invasion assay was used. The levels of phosphorylated IκBα were confirmed in TPA treated ER-positive (MCF-7 and T47D) and ER-negative (MDA-MB-231) breast cancer cell lines and compared the levels to those after pretreatment with compound I. Although induced levels of phosphorylated IκBα varied with the cell line, IκBα phosphorylation was eliminated by compound I treatment in all three breast cancer cell lines. Compound I also produced no effect on the estrogen receptor activity in the ER-positive breast cancer cells using ERE promoter luciferase reporter assay. Invasion capacity of breast cancer cells was increased by TPA stimulation compared to DMSO treated vehicle control. […] Following anchorage-independent colony induction in TPA-treated cells without or with compound I, colonies were lysed and measured with CyQuant GR Dye to detect DNA by fluorescence plate reader as a measure of colony count. Total transformed colony numbers were calculated from RFU and cell dose curve of JB6 cells. […]

estrogen receptor = assay: ERE promoter luciferase reporter assay in ER-positive breast cancer cells
Experimental: as §1

NF-1 = assay: EMSA of NF-1 DNA binding, HEK293 nuclear fractions; settings: 17 μM
Experimental: (§2) EMSA was performed with the nuclear fraction of HEK293 cell using LightShift Chemiluminescent EMSA Kit (Pierce Biotechnology, Rockford, Ill.) according to the manufacture's instruction. Oligonucleotides for NFκB, NF-1, and AP-1 were labeled with biotin by Biotin 3′ End DNA labeling Kit (Pierce Biotechnology, Rockford, Ill.). The quantified 15 μg of nuclear extracts were incubated for 20 mins with 1 μg/μl Poly (dI.dC), biotin end-label target nucleotides in 20 μl binding buffer DNA-protein complexes were fractionated on 6% a polyacrylamide gel and transferred to a nylon membrane. The membranes were processed to detect biotin-label DNA by cross-linking, blocking, and detection incubations. Results were obtained by X-ray film exposure for 10 sec and development. The target sequences of oligonucleotides for NFκB, NF-1, and AP-1 are as follows;
(§3) To determine whether the effect of compound I on nuclear translocation of NFκB leads to inhibited binding of NFκB proteins to DNA, EMSA in HEK293 cells was performed. […] TPA-induced binding complex was attenuated by pretreatment with compound I in a dose-dependent manner (lanes 5-9). This binding inhibition parallels the inhibition of luciferase reporter transactivation and inhibition of nuclear translocation of NFκB proteins. […]

AP-1 [2] = assay: EMSA of AP-1 DNA binding, HEK293 nuclear fractions; settings: 17 μM
Experimental: as §2, §3

IC50 (AP-1 [1]; HEK293, 1 h pretreatment, TPA 10 ng/ml 18 hrs, read-out: IC50 for inhibition of TPA induced AP-1): 17 µM | NF-1 DNA binding activity (NF-1): little or no effect | AP-1 DNA binding activity (AP-1 [2]): little or no effect
SMILES: Cc1cc(N)ccc1N=Nc1ccc(S(=O)(=O)CCOS(=O)(=O)O)cc1 [compound I, 2-(4-((4-amino-2-methylphenyl)diazenyl)phenylsulfonyl)ethyl hydrogen sulfate]
AP-1 luciferase activity, % of the activity with TPA alone (AP-1 [1]; compound at 17.0 μM, HEK293, TPA 10 ng/ml 18 hrs): 50% | IκBα phosphorylation in breast cancer cell lines (IκBα): eliminated | Effect on estrogen receptor activity (estrogen receptor): no effect
